Results taken from ChEMBL document CHEMBL5042512 (Eur J Med Chem, 2022).
Active and inactive are the calls of the source. No cut-off for these calls is given here.

Tests used:
KYSE-450 [1] = assay: Induction of apoptosis in human KYSE-450 cells assessed as caspase-3 cleavage at 80 to 100 nM measured after 48 hrs by western blot analysis; format: functional, cell-based; conditions: dose 80-100 nM
KYSE-30 [2] = assay: Induction of mitochondrial membrane potential loss in human KYSE-30 cells assessed as upregulation of NOXA protein at 80 to 100 nM measured after 48 hrs by western blot analysis; format: functional, cell-based; conditions: dose 80-100 nM
MGC-803 = assay: Antiproliferative activity against human MGC-803 cells assessed as cell growth inhibition measured after 48 hrs by CCK8 assay; format: functional, cell-based; conditions: MGC-803, 48 h
HCT-116 = assay: Antiproliferative activity against human HCT-116 cells assessed as cell growth inhibition measured after 48 hrs by CCK8 assay; format: functional, cell-based; conditions: HCT-116, 48 h
Sus scrofa = species: Sus scrofa; assay: Inhibition of pig brain tubulin polymerization at 3 uM by spectrophotometry
Tubulin (Homo sapiens) [3] = target: T1, Tubulin (Homo sapiens) (UniProt P68371+Q9H4B7+P0DPH7+P68366+Q13509+Q71U36+P04350+Q3ZCM7+P07437+P68363+Q9BQE3+Q6PEY2+Q13885+Q9BVA1+Q9BUF5); assay: Inhibition of tubulin polymerization in human KYSE-30 cells assessed as microtubule assembly at 0.1 uM measured after 48 hrs by immunofluorescence assay; format: cell-based
Tubulin (Homo sapiens) [4] = target: T1, Tubulin (Homo sapiens); assay: Inhibition of tubulin polymerization in human KYSE-450 cells assessed as microtubule assembly at 0.1 uM measured after 48 hrs by immunofluorescence assay; format: cell-based
Tubulin (Homo sapiens) [5] = target: T1, Tubulin (Homo sapiens); assay: Inhibition of tubulin polymerization in human KYSE-30 cells assessed as weakening of beta tubulin at 100 to 300 nM for 2 hrs by EBI alkylate competition assay; format: cell-based; conditions: dose 100-300 nM
Tubulin (Homo sapiens) [6] = target: T1, Tubulin (Homo sapiens); assay: Inhibition of tubulin polymerization in human KYSE-450 cells assessed as weakening of beta tubulin at 100 to 300 nM for 2 hrs by EBI alkylate competition assay; format: cell-based; conditions: dose 100-300 nM
KYSE-30 [7] = assay: Antiproliferative activity against human KYSE-30 cells assessed as inhibition of colony formation at 40 to 60 nM for 7 days by crystal violet staining based analysis; format: functional, cell-based; conditions: dose 40-60 nM, time 7.0 day
KYSE-450 [8] = assay: Antiproliferative activity against human KYSE-450 cells assessed as inhibition of colony formation at 40 to 60 nM for 7 days by crystal violet staining based analysis; format: functional, cell-based; conditions: dose 40-60 nM, time 7.0 day
KYSE-30 [9] = assay: Induction of cell cycle arrest in human KYSE-30 cells assessed as accumulation at G2/M phase at 100 nM measured after 48 hrs by flow cytometry analysis (reference value: 19.38 %); format: functional
KYSE-30 [10] = assay: Down regulation of CDK1 protein expression in human KYSE-30 cells at 80 to 100 nM for 48 hrs by western blot analysis; format: functional, cell-based; conditions: dose 80-100 nM
KYSE-30 [11] = assay: Down regulation of CDC25C protein expression in human KYSE-30 cells at 80 to 100 nM for 48 hrs by western blot analysis; format: functional, cell-based; conditions: dose 80-100 nM
KYSE-450 [12] = assay: Down regulation of CDC25C protein expression in human KYSE-450 cells at 80 to 100 nM for 48 hrs by western blot analysis; format: functional, cell-based; conditions: dose 80-100 nM
KYSE-450 [13] = assay: Down regulation of p-wee1 protein expression in human KYSE-450 cells at 80 to 100 nM for 48 hrs by western blot analysis; format: functional, cell-based; conditions: dose 80-100 nM
KYSE-30 [14] = assay: Up regulation of p-Histone H3 protein expression in human KYSE-30 cells at 80 to 100 nM for 48 hrs by western blot analysis; format: functional, cell-based; conditions: dose 80-100 nM
KYSE-450 [15] = assay: Up regulation of p-Histone H3 protein expression in human KYSE-450 cells at 80 to 100 nM for 48 hrs by western blot analysis; format: functional, cell-based; conditions: dose 80-100 nM
KYSE-450 [16] = assay: Induction of apoptosis in human KYSE-450 cells assessed as apoptotic cells at 80 nM measured after 48 hrs by annexin-V-FITC and PI staining based flow cytometry analysis (reference value: 8.1667 %); format: functional
KYSE-30 [17] = assay: Induction of apoptosis in human KYSE-30 cells assessed as apoptotic cells at 100 nM measured after 48 hrs by annexin-V-FITC and PI staining based flow cytometry analysis (reference value: 8.1667 %); format: functional
KYSE-450 [18] = assay: Induction of apoptosis in human KYSE-450 cells assessed as apoptotic cells at 100 nM measured after 48 hrs by annexin-V-FITC and PI staining based flow cytometry analysis (reference value: 8.1667 %); format: functional
KYSE-30 [19] = assay: Induction of mitochondrial membrane potential loss in human KYSE-30 cells assessed as upregulation of Bax protein at 80 to 100 nM measured after 48 hrs by western blot analysis; format: functional, cell-based; conditions: dose 80-100 nM
KYSE-450 [20] = assay: Induction of mitochondrial membrane potential loss in human KYSE-450 cells assessed as upregulation of Bax protein at 80 to 100 nM measured after 48 hrs by western blot analysis; format: functional, cell-based; conditions: dose 80-100 nM
KYSE-450 [21] = assay: Induction of mitochondrial membrane potential loss in human KYSE-450 cells assessed as upregulation of NOXA protein at 80 to 100 nM measured after 48 hrs by western blot analysis; format: functional, cell-based; conditions: dose 80-100 nM
KYSE-30 [22] = assay: Induction of mitochondrial membrane potential loss in human KYSE-30 cells assessed as downregulation of Bcl-2 protein at 80 to 100 nM measured after 48 hrs by western blot analysis; format: functional, cell-based; conditions: dose 80-100 nM
KYSE-450 [23] = assay: Induction of mitochondrial membrane potential loss in human KYSE-450 cells assessed as downregulation of Bcl-2 protein at 80 to 100 nM measured after 48 hrs by western blot analysis; format: functional, cell-based; conditions: dose 80-100 nM
KYSE-30 [24] = assay: Induction of mitochondrial membrane potential loss in human KYSE-30 cells assessed as decrease in XIAP level at 80 to 100 nM measured after 48 hrs by western blot analysis; format: functional, cell-based; conditions: dose 80-100 nM
KYSE-30 [25] = assay: Induction of mitochondrial membrane potential loss in human KYSE-30 cells assessed as Bak expression at 80 to 100 nM measured after 48 hrs by western blot analysis; format: functional, cell-based; conditions: dose 80-100 nM
KYSE-30 [26] = assay: Induction of mitochondrial membrane potential loss in human KYSE-30 cells assessed as Bcl-xL expression at 80 to 100 nM measured after 48 hrs by western blot analysis; format: functional, cell-based; conditions: dose 80-100 nM
KYSE-450 [27] = assay: Induction of mitochondrial membrane potential loss in human KYSE-450 cells assessed as Mcl-1 expression at 80 to 100 nM measured after 48 hrs by western blot analysis; format: functional, cell-based; conditions: dose 80-100 nM
KYSE-30 [28] = assay: Antiproliferative activity against human KYSE-30 cells assessed as cell viability measured up to 48 hrs by CCK8 assay; format: functional, cell-based; conditions: time hrs <=48, TDE = time-dependent effect
KYSE-450 [29] = assay: Antiproliferative activity against human KYSE-450 cells assessed as cell viability measured up to 48 hrs by CCK8 assay; format: functional, cell-based; conditions: time hrs <=48, TDE = time-dependent effect
KYSE-30 [30] = assay: Induction of apoptosis in human KYSE-30 cells assessed as PARP cleavage at 80 to 100 nM measured after 48 hrs by western blot analysis; format: functional, cell-based; conditions: dose 80-100 nM
KYSE-450 [31] = assay: Induction of apoptosis in human KYSE-450 cells assessed as PARP cleavage at 80 to 100 nM measured after 48 hrs by western blot analysis; format: functional, cell-based; conditions: dose 80-100 nM
KYSE-30 [32] = assay: Induction of mitochondrial membrane potential loss in human KYSE-30 cells assessed as mitochondrial depolarization at 80 to 100 nM measured after 48 hrs by JCI staining based flow cytometry; format: functional, cell-based; conditions: dose 80-100 nM
KYSE-450 [33] = assay: Induction of mitochondrial membrane potential loss in human KYSE-450 cells assessed as mitochondrial depolarization at 80 to 100 nM measured after 48 hrs by JCI staining based flow cytometry; format: functional, cell-based; conditions: dose 80-100 nM

COc1ccc(CN(C(=O)CSC(=S)N2CCN(C(=O)OC(C)(C)C)CC2)c2cc(OC)c(OC)c(OC)c2)cc1O
Activity (KYSE-450 [1]): Active | Activity (KYSE-30 [2]): Dose-Dependent Effect | IC50 (MGC-803): 82 nM | IC50 (HCT-116): 128 nM | inhibition (Sus scrofa): Active | inhibition (Tubulin (Homo sapiens) [3]): Active | inhibition (Tubulin (Homo sapiens) [4]): Active | inhibition (Tubulin (Homo sapiens) [5]): Active | inhibition (Tubulin (Homo sapiens) [6]): Active | inhibition (KYSE-30 [7]): Active | inhibition (KYSE-450 [8]): Active | Activity (KYSE-30 [9]): 76.9767% | Activity (KYSE-30 [10]): Dose-Dependent Effect | Activity (KYSE-30 [11]): Dose-Dependent Effect | Activity (KYSE-450 [12]): Dose-Dependent Effect | Activity (KYSE-450 [13]): Dose-Dependent Effect | Activity (KYSE-30 [14]): Dose-Dependent Effect | Activity (KYSE-450 [15]): Dose-Dependent Effect | Activity (KYSE-450 [16]): 34.0333% | Activity (KYSE-30 [17]): 38.633% | Activity (KYSE-450 [18]): 57.3667% | Activity (KYSE-30 [19]): Dose-Dependent Effect | Activity (KYSE-450 [20]): Dose-Dependent Effect | Activity (KYSE-450 [21]): Dose-Dependent Effect | Activity (KYSE-30 [22]): Dose-Dependent Effect | Activity (KYSE-450 [23]): Dose-Dependent Effect | Activity (KYSE-30 [24]): Dose-Dependent Effect | Activity (KYSE-30 [25]): inactive | Activity (KYSE-30 [26]): inactive | Activity (KYSE-450 [27]): inactive | inhibition (KYSE-30 [28]): Tde | inhibition (KYSE-450 [29]): Tde | Activity (KYSE-30 [30]): Active | Activity (KYSE-450 [31]): Active | Activity (KYSE-30 [32]): Active | Activity (KYSE-450 [33]): Active
